Consider two compounds from ChEMBL document CHEMBL5143660, “Investigation on the chemical space of the substituted triazole thio-benzoxazepinone RIPK1 inhibitors” (Eur J Med Chem, 2022).

The test system of data set [1] is HT-29. The experiment in a line: Anti-necroptic activity in human HT-29 cells assessed as inhibition of TSZ induced necroptosis measured after 16 to 24 hrs by celltiter-glo luminescent cell viability assay. It is filed as functional, cell-based.
The nature of data set [2]: Cytotoxicity against human HT-29 cells assessed as reduction in cell viability. It is filed as toxicity, cell-based.
Data set [3] has as its target T1, Receptor-interacting serine/threonine-protein kinase 1 (Homo sapiens, UniProt Q13546).
T1 sequence (Q13546 whole entry): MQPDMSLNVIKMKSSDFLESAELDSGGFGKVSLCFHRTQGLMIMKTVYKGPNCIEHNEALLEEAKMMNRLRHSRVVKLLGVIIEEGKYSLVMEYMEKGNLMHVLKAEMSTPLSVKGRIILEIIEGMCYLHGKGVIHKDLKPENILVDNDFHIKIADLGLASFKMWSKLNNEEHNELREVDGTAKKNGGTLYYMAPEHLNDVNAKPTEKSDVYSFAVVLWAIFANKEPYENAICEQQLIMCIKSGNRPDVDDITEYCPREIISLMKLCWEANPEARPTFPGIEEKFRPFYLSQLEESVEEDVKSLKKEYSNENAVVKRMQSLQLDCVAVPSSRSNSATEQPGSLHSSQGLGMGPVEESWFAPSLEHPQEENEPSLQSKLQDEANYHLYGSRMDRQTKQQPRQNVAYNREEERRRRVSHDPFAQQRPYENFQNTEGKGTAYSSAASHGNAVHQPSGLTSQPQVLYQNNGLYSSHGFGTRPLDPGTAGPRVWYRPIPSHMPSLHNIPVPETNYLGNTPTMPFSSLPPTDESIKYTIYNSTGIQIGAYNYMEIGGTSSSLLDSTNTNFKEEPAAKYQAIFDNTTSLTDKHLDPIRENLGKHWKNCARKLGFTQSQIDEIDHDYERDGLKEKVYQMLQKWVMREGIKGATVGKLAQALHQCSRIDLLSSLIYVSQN
The experiment in a line: Binding affinity to wild-type human partial length RIPK1 (M1 to K305 residues) expressed in bacterial expression system incubated for 1 hr under shaking condition by Kinomescan method.

Data set [4] relates to HT-29. Put plainly: Anti-necroptic activity in human HT-29 cells assessed as inhibition of TSZ induced necroptosis measured after 12 hrs by celltiter-glo luminescent cell viability assay. It is filed as functional, cell-based. To be noted: dose 0.195-200 nM, DDE = dose-dependent effect.
In data set [5] the test system is HT-29. The experiment in a line: Anti-necroptic activity in human HT-29 cells assessed as inhibition of TCZ induced necroptosis measured after 16 hrs by celltiter-glo luminescent cell viability assay. It is filed as functional, cell-based. The settings on record: dose 0.781-200 nM, DDE = dose-dependent effect.
The subject of another data set is U-937. The experiment in a line: Anti-necroptic activity in human U-937 cells assessed as inhibition of TSZ induced necroptosis pretreated with compound followed by TSZ addition ans measured after 12 hrs by celltiter-glo luminescent cell viability assay. It is filed as functional, cell-based. To be noted: dose 0.312-200 nM, DDE = dose-dependent effect.
For another data set, the system named is L929. The experiment in a line: Anti-necroptic activity in mouse L929 cells assessed as inhibition of TZ induced necroptosis pretreated with compound followed by TZ addition and measured after 12 hrs by celltiter-glo luminescent cell viability assay. It is filed as functional, cell-based. The settings on record: dose 0.078-10 µM, DDE = dose-dependent effect.

Data set [6] concerns the target T2, Receptor-interacting serine/threonine-protein kinase 1 (Homo sapiens) (UniProt Q13546).
T2 sequence (whole entry): T1 sequence (Q13546 whole entry)
The experiment in a line: Inhibition of RIPK1 phosphorylation in TSZ-induced human HT-29 cells pretreated with compound followed by TSZ stimulation and measured after 6 hrs by immunoblotting analysis. It is filed as cell-based. To be noted: dose 0.5-20 nM, DDE = dose-dependent effect.

Data set [7] addresses Receptor-interacting serine/threonine-protein kinase 3 (Homo sapiens) (UniProt Q9Y572). Put plainly: Inhibition of RIPK3 phosphorylation in TSZ-induced human HT-29 cells pretreated with compound followed by TSZ stimulation and measured after 6 hrs by immunoblotting analysis. It is filed as cell-based. The settings on record: dose 0.5-20 nM, DDE = dose-dependent effect.
The target in data set [8] is T3, Mixed lineage kinase domain-like protein (Homo sapiens) (UniProt Q8NB16).
T3 sequence (whole entry): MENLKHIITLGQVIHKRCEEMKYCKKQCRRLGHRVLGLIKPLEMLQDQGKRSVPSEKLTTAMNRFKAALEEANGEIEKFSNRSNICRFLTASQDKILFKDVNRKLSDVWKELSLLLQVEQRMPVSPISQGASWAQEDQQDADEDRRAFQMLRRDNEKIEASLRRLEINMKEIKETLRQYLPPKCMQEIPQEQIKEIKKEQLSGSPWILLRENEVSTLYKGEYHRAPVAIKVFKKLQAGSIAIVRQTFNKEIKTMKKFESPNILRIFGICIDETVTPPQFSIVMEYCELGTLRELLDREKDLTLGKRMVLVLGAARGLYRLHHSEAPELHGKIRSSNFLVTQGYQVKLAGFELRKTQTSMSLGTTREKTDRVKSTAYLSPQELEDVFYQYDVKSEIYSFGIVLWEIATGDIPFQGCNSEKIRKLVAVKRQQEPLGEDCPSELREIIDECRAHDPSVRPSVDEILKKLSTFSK
The experiment in a line: Inhibition of MLKL phosphorylation in TSZ-induced human HT-29 cells pretreated with compound followed by TSZ stimulation and measured after 6 hrs by immunoblotting analysis. It is filed as cell-based. To be noted: dose 0.5-20 nM, DDE = dose-dependent effect.

In data set [9] the target is T2, Receptor-interacting serine/threonine-protein kinase 1 (Homo sapiens). Put plainly: Inhibition of RIPK1 phosphorylation in TSZ-induced human HT-29 cells at 20 nM pretreated with compound followed by TSZ stimulation and measured after 2 to 6 hrs by immunoblotting analysis. It is filed as cell-based. The settings on record: time 2-6 hrs.
In data set [10] the target is Receptor-interacting serine/threonine-protein kinase 3 (Homo sapiens) (UniProt Q9Y572). Put plainly: Inhibition of RIPK3 phosphorylation in TSZ-induced human HT-29 cells at 20 nM pretreated with compound followed by TSZ stimulation and measured after 2 to 6 hrs by immunoblotting analysis. The settings on record: time 2-6 hrs. It is filed as cell-based.
For data set [11], the target named is T3, Mixed lineage kinase domain-like protein (Homo sapiens). The experiment in a line: Inhibition of downstream MLKL phosphorylation in TSZ-induced human HT-29 cells at 20 nM pretreated with compound followed by TSZ stimulation and measured after 2 to 6 hrs by immunoblotting analysis. The settings on record: time 2-6 hrs. It is filed as cell-based.
The subject of data set [12] is HT-29. Put plainly: Inhibition of RIPK1-RIPK3-MLKL pathway in TSZ induced human HT-29 cells assessed as reduction in necrosome formation at 20 nM measured after 6 hrs by Western blot analysis. It is filed as cell-based.
Data set [13] relates to Mus musculus. The experiment in a line: Anti-necroptic activity against mTNFalpha-induced systemic inflammatory response syndrome C57BL/6J mouse model assessed as protection of body temperature pretreated with compound at 5 to 20 mg/kg, IG administered as single dose followed by mTNFalpha injection measured after 2 to 3 hrs. To be noted: dose 5-20 mg/kg, time 2-3 hrs. It is filed as functional, organism-based.

Data set [14] has as its system Mus musculus. The experiment in a line: Anti-necroptic activity against mTNFalpha induced C57BL/6J mouse systemic inflammatory response syndrome model assessed as survival rate pretreated with compound at 5 to 20 mg/kg, IG administered as single dose followed by mTNFalpha injection and measured over 60 hrs. It is filed as functional. The settings on record: dose 5-20 mg/kg.

Data set [15] deals with T2, Receptor-interacting serine/threonine-protein kinase 1 (Homo sapiens). The experiment in a line: Inhibition of RIPK1 phosphorylation in TSZ-induced human HT-29 cells at 5 to 20 nM pretreated with compound followed by TSZ stimulation and measured after 6 hrs by immunoblotting analysis. It is filed as cell-based. To be noted: dose 5-20 nM.
The target of data set [16] is Receptor-interacting serine/threonine-protein kinase 3 (Homo sapiens) (UniProt Q9Y572). The experiment in a line: Inhibition of RIPK3 phosphorylation in TSZ-induced human HT-29 cells at 5 to 20 nM pretreated with compound followed by TSZ stimulation and measured after 6 hrs by immunoblotting analysis. It is filed as cell-based. To be noted: dose 5-20 nM.
The target in data set [17] is T3, Mixed lineage kinase domain-like protein (Homo sapiens). Put plainly: Inhibition of MLKL phosphorylation in TSZ-induced human HT-29 cells at 5 to 20 nM pretreated with compound followed by TSZ stimulation and measured after 6 hrs by immunoblotting analysis. It is filed as cell-based. To be noted: dose 5-20 nM.
Data set [18] addresses T2, Receptor-interacting serine/threonine-protein kinase 1 (Homo sapiens). The experiment in a line: Inhibition of RIPK1 phosphorylation in TSZ-induced human HT-29 cells at 10 nM pretreated with compound followed by TSZ stimulation and measured after 2 to 6 hrs by immunoblotting analysis. It is filed as cell-based. The settings on record: time 2-6 hrs.
Data set [19] deals with Receptor-interacting serine/threonine-protein kinase 3 (Homo sapiens) (UniProt Q9Y572). The experiment in a line: Inhibition of RIPK3 phosphorylation in TSZ-induced human HT-29 cells at 10 nM pretreated with compound followed by TSZ stimulation and measured after 2 to 6 hrs by immunoblotting analysis. It is filed as cell-based. To be noted: time 2-6 hrs.
The target of data set [20] is T3, Mixed lineage kinase domain-like protein (Homo sapiens). Put plainly: Inhibition of downstream MLKL phosphorylation in TSZ-induced human HT-29 cells at 10 nM pretreated with compound followed by TSZ stimulation and measured after 2 to 6 hrs by immunoblotting analysis. To be noted: time 2-6 hrs. It is filed as cell-based.
Data set [21] deals with HT-29. The experiment in a line: Inhibition of RIPK1-RIPK3-MLKL pathway in TSZ induced human HT-29 cells assessed as reduction in necrosome formation at 10 nM measured after 6 hrs by Western blot analysis. It is filed as cell-based.
Data set [22] concerns Mus musculus. The experiment in a line: Anti-necroptic activity against mTNFalpha-induced systemic inflammatory response syndrome C57BL/6J mouse model assessed as protection of body temperature pretreated with compound at 5 to 15 mg/kg, IG administered as single dose followed by mTNFalpha injection measured after 2 to 3 hrs. It is filed as functional, organism-based. The settings on record: dose 5-15 mg/kg, time 2-3 hrs.

Data set [23] has as its system Mus musculus. The experiment in a line: Anti-necroptic activity against mTNFalpha induced C57BL/6J mouse systemic inflammatory response syndrome model assessed as survival rate pretreated with compound at 5 mg/kg, IG administered as single dose followed by mTNFalpha injection and measured over 60 hrs. It is filed as functional.
Data set [24] relates to Mus musculus. The experiment in a line: Anti-necroptic activity against mTNFalpha induced C57BL/6J mouse systemic inflammatory response syndrome model assessed as survival rate pretreated with compound at 10 mg/kg, IG administered as single dose followed by mTNFalpha injection and measured over 60 hrs. It is filed as functional.
Data set [25] concerns Mus musculus. Put plainly: Anti-necroptic activity against mTNFalpha induced C57BL/6J mouse systemic inflammatory response syndrome model assessed as survival rate pretreated with compound at 15 mg/kg, IG administered as single dose followed by mTNFalpha injection and measured over 60 hrs. It is filed as functional.
The target in data set [26] is T2, Receptor-interacting serine/threonine-protein kinase 1 (Homo sapiens). The experiment in a line: Inhibition of RIPK1 phosphorylation in TSZ-induced human HT-29 cells at 2 to 4 nM pretreated with compound followed by TSZ stimulation and measured after 6 hrs by immunoblotting analysis. It is filed as cell-based. The settings on record: dose 2-4 nM.
Data set [27] has as its target Receptor-interacting serine/threonine-protein kinase 3 (Homo sapiens) (UniProt Q9Y572). Put plainly: Inhibition of RIPK3 phosphorylation in TSZ-induced human HT-29 cells at 2 to 4 nM pretreated with compound followed by TSZ stimulation and measured after 6 hrs by immunoblotting analysis. The settings on record: dose 2-4 nM. It is filed as cell-based.
Data set [28] deals with T3, Mixed lineage kinase domain-like protein (Homo sapiens). The experiment in a line: Inhibition of MLKL phosphorylation in TSZ-induced human HT-29 cells at 2 to 4 nM pretreated with compound followed by TSZ stimulation and measured after 6 hrs by immunoblotting analysis. It is filed as cell-based. The settings on record: dose 2-4 nM.

Active and inactive are the calls of the source. The calls are words filed in the database; no cut-off is given here.

Chain of Receptor-interacting serine/threonine-protein kinase 3 (Homo sapiens) (Q9Y572 whole entry, looked up, the tested form may be a part): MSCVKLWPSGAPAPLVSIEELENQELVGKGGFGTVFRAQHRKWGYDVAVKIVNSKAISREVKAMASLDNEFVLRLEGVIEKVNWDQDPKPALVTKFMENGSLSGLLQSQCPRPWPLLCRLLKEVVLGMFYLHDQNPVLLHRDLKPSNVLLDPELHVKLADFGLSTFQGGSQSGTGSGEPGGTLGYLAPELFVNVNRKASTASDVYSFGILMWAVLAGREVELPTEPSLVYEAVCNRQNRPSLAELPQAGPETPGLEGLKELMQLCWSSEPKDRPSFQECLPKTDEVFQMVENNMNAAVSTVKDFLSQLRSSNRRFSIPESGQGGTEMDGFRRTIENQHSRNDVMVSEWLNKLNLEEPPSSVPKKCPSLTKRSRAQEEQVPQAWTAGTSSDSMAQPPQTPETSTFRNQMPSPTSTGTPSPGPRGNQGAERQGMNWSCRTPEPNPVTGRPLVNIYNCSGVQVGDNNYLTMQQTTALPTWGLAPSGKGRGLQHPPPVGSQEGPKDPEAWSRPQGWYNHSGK

Take `CN1C(=S)[C@@H](NC(=O)c2nc(Cc3ccccc3)n(CCF)n2)COc2ccccc21`: the half-maximal effective concentration (EC50) in the data set on HT-29 [1] stood at 8.9 nM. Moreover, in data set [2], the CC50 was > 100000 nM. Besides, the affinity in data set [3], expressed as Kd, was 60 nM. Further, the Activity result in the data set with HT-29 [4] was “Dde”; in the data set on HT-29 [5] it was “Dde”; with U-937, “Dde”; with L929, “Dde”; with Mus musculus [14], 90%. Further, the inhibition entry is “Dde” in [6]; “Dde” in [7]; “Dde” in data set [8]; 100% in [9]; 100% in data set [10]; 100% in data set [15]. Also, the inhibition in [16] and in data set [17] was 100% in each case. For the same compound, the inhibition result (in data set [11]; in the data set with HT-29 [12]) was “Active” in each case. The result with Mus musculus [13] was Active.

On to `CN1C(=S)[C@@H](NC(=O)c2nc(Cc3ccccc3)n(C)n2)COc2ccccc21`, for which the EC50 in the data set with HT-29 [1] turned out to be 2.5 nM. Further, in data set [2], the half-maximal cytotoxic concentration (CC50) was > 100000 nM. In addition, the Kd in data set [3] stood at 31 nM. Further, the Activity result is “Dde” with HT-29 [4]; “Dde” in the data set on HT-29 [5]; “Dde” with U-937; “Dde” with L929; 70% with Mus musculus [23]; 100% in the data set on Mus musculus [24]. Moreover, in the data set on Mus musculus [25], the Activity is 100%. Besides, the inhibition result was “Dde” in [6]; “Dde” in data set [7]; “Dde” in [8]; 100% in data set [18]; 100% in [19]; 100% in [26]. Besides, the inhibition in data set [27] and in data set [28] was 100% throughout. The inhibition entry (in data set [20]; in the data set with HT-29 [21]) was “Active” each time. Further, in the data set on Mus musculus [22], the result was Active.
